Values of other authors, collected in patent US12107222B2, “Liquid electrolyte comprising organic carbonates and cyclic sulfoxides for applications in lithium secondary batteries” (Forschungszentrum Juelich GmbH, priority 2018, dated 2024).

Legend:
human organism = settings: classification in words
rat [1] = settings: in vivo
rat [2] = test system: rat
rat [3] = test system: rat; remark: listed apart in the source

Row | SMILES | hazard classification (human organism) | LD50, rat, oral (rat [1]) | LD50, rabbit, dermal (rabbit) | also measured
1 | O=S1(=O)CCCO1 [1,3-propane sultone] | carcinogenic and toxic |  |  | 
2 | CCC1COC(=O)O1 (stereo not drawn) [1,2-Butylene carbonate] |  | LD50, rat, oral: >5,000 mg/kg | LD50, rabbit, dermal: >2,000 mg/kg^[13] | 
3 | O=c1occo1 [Vinylene carbonate] | toxic on contact with the skin |  |  | 
4 | O=C1OCCO1 [Ethylene carbonate] |  |  |  | LD50, rat, dermal (rat [2]): LD50, rat, dermal: >2,000 mg/kg; LC50, rat, inhalative, 7 h (rat [3]): LC50, rat, inhalative, 7 h: >1.268 mg/L^[12]
5 | CC1COC(=O)O1 (stereo not drawn) [Propylene carbonate] |  | LD50, rat, oral: >5,000 mg/kg | LD50, rabbit, dermal: >2,000 mg/kg^[2] | 
6 | [O-][S+]1CCCC1 [Tetrahydrothiophene-1-oxide] |  |  |  | LD50, mouse, intraperitoneal (mouse): LD50, mouse, intraperitoneal: 3,500
